# Assay results reported in PMC9405973, “Altered Conformational Landscape upon Sensing Guanine Nucleotides in a Disease Mutant of Elongation Factor-like 1 (EFL1) GTPase” (Biomolecules, 2022).
# Target: T1, Efl1 mutant T33A in complex with Sdo1 and the 60S subunits (Saccharomyces cerevisiae, UniProt P53893, T33A)
# T1 construct: made in house; host or cells: Efl1: Saccharomyces cerevisiae; Sdo1: Escherichia coli C41; 60S subunits purified from S. cerevisiae strain JD1370
# T1 sequence (P53893 1-1110 T33A): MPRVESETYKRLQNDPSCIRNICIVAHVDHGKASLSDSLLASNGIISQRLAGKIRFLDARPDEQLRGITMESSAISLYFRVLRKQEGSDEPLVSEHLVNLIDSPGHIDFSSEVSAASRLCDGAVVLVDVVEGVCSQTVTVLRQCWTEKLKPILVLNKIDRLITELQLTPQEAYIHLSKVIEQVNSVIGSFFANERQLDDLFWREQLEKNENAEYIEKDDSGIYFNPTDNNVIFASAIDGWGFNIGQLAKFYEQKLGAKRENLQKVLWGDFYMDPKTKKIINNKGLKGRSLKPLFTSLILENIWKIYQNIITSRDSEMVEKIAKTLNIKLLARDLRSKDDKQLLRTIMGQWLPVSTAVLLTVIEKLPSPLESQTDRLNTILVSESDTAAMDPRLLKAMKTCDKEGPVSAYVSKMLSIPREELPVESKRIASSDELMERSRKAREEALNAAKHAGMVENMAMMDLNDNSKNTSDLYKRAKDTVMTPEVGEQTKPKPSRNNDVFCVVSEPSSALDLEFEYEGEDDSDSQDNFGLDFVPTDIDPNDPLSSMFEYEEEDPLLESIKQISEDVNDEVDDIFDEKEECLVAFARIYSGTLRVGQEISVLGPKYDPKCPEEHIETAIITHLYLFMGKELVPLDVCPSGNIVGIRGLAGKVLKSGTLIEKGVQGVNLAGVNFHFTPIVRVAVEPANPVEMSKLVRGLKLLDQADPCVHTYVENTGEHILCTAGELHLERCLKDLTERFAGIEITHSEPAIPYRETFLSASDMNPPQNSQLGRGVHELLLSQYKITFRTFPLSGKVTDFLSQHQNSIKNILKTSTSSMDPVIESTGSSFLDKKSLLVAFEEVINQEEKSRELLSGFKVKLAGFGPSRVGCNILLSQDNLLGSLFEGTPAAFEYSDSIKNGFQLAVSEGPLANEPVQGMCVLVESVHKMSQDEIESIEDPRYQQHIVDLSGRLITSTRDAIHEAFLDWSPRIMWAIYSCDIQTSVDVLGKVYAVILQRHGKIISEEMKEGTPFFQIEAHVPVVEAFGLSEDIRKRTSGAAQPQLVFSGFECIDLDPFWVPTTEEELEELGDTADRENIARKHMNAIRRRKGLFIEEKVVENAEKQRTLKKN
# T1 sequence (Q07953 1-250 partner): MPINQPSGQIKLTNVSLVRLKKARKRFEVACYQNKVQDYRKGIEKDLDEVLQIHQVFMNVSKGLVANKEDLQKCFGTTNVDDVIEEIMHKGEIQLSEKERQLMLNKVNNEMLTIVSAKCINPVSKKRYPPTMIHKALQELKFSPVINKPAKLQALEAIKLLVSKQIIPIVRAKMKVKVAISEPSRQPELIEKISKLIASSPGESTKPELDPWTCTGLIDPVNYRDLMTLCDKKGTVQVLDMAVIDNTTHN
# Experiment: Steady state fluorescence binding of mant-GTP to Efl1 T33A in complex with Sdo1 and 60S subunits
# Settings: 25 °C, one-binding-site model; read-out: dissociation constant (Kd)
# Protocol: We measured the binding of different Efl1 constructs present in complex with Sdo1 and 60S subunits to the fluorescence GTP analogue, mant-GTP, by following the increase in the fluorescence signal after excitation at 355 nm. Fluorescence intensities were plotted as a function of increasing nucleotide concentrations, and the dissociation constant (Kd) was calculated by fitting the data to a one-binding-site model (Supplementary Figure S1B).
# Hydrolysis of GTP was measured using the Enzchek Phosphate Assay kit (Molecular Probes) as described by Webb. Standard reactions consisted of 100 µL containing 6 µM of Efl1 R1086Q and Efl1 L910K, 0.3 mM MESG, 1.0 U purine nucleoside phosphorylase (PNP) and the indicated amounts of GTP. […]
# Reactions were initiated and the GTPase was added after 3 min. Time courses were followed by recording the change in absorbance at 360 nm in a Cary 60 UV -Vis spectrophotometer (Agilent Technologies). Background absorbance was recorded prior to the addition of the GTPase and subtracted from the sample signals. The slope of the measured time courses corresponded to the GTP hydrolysis rate. […] Data were analysed by nonlinear regression to the M ichaelis-Menten equation with the program Origin Version 5.0 (OriginLab, Co., Northampton, MA). […]
# Steady state fluorescence measurements […]
# Maximum emission at 440 nm was replotted as a function of nucleotide concentration and analysed
structure (smiles),measurement,value
CNc1ccccc1C(=O)O[C@H]1[C@@H](O)[C@H](n2cnc3c(=O)[nH]c(N)nc32)O[C@@H]1COP(=O)(O)OP(=O)(O)OP(=O)(O)O [mant-GTP],Kd,24 µM
